Values after ≈ are worked out from the molar mass of the structure shown.
Columns and labels:
test microbes = test: Agar diffusion test, zones of inhibition; type: cell-based; conditions: for Zone of inhibition (diameter) / zone of inhibition at 25 µg/mL / zone of inhibition at 50 µg/mL / zone of inhibition at 100 µg/mL / zone of inhibition at 200 µg/mL: agar layer; for zone of inhibition at 25 µg/mL: concentration 0.025 mg/mL; for zone of inhibition at 25 µg/mL / zone of inhibition at 50 µg/mL / zone of inhibition at 100 µg/mL / zone of inhibition at 200 µg/mL / zone of inhibition at 6.3 µg/mL / zone of inhibition at 12.5 µg/mL: read-out: Zone of inhibition (diameter); for zone of inhibition at 50 µg/mL: concentration 0.05 mg/mL; for zone of inhibition at 100 µg/mL: concentration 0.1 mg/mL; for zone of inhibition at 200 µg/mL: concentration 0.2 mg/mL
From the text: The superiority of the antibiotics according to the invention is shown particularly in so-called diffusion tests in which the compounds diffuse in an agar layer containing the test microbes. The diameter of the zones of inhibition is then a measure of the activity of the antibiotics (Table 3).

[1] = Solubility in organic solvents; type: physicochemical
A. flavus ATCC 9643 = test: In vitro microdilution test in RPMI 1640 medium; type: cell-based; conditions: Aspergillus flavus, ATCC9643, 144 h, mold A. flavus ATCC 9643, 6 days at 30° C., read-out: Minimum inhibitory concentration MIC
Procedure: (§1) In vitro activity on dermatophytes, yeasts and molds
(§2) (microdilution test in RPMI 1640 medium)
(§3) Incubation: 48 h at 35° C. (yeasts) or 6 days at 30° C. (dermatophytes and molds)

A. fumigatus ATCC 9197 = test: In vitro microdilution test in RPMI 1640 medium; type: cell-based; conditions: Aspergillus fumigatus, ATCC9197, 144 h, mold A. fumigatus ATCC 9197, 6 days at 30° C., read-out: Minimum inhibitory concentration MIC
Procedure: as §1, §2, §3

A. niger ATCC 16404 = test: In vitro microdilution test in RPMI 1640 medium; type: cell-based; conditions: Aspergillus niger, ATCC16404, 144 h, mold A. niger ATCC 16404, 6 days at 30° C., read-out: Minimum inhibitory concentration MIC
Procedure: as §1, §2, §3

C. albicans ATCC 90028 = test: In vitro microdilution test in RPMI 1640 medium; type: cell-based; conditions: Candida albicans, ATCC90028, yeast C. albicans ATCC 90028, 48 h at 35° C., read-out: Minimum inhibitory concentration MIC
Procedure: as §1, §2, §3

C. albicans ATCC 90029 = test: In vitro microdilution test in RPMI 1640 medium; type: cell-based; conditions: Candida albicans, ATCC90029, yeast C. albicans ATCC 90029, 48 h at 35° C., read-out: Minimum inhibitory concentration MIC
Procedure: as §1, §2, §3

C. glabrata ATCC 90030 = test: In vitro microdilution test in RPMI 1640 medium; type: cell-based; conditions: Nakaseomyces glabratus, ATCC90030, yeast C. glabrata ATCC 90030, 48 h at 35° C., read-out: Minimum inhibitory concentration MIC
Procedure: as §1, §2, §3

C. glabrata Berlin 12 = test: In vitro microdilution test in RPMI 1640 medium; type: cell-based; conditions: Nakaseomyces glabratus, BERLIN12, yeast C. glabrata Berlin 12, 48 h at 35° C., read-out: Minimum inhibitory concentration MIC
Procedure: as §1, §2, §3

C. krusei 203/230 = test: In vitro microdilution test in RPMI 1640 medium; type: cell-based; conditions: Pichia kudriavzevii, yeast C. krusei 203/230, 48 h at 35° C., read-out: Minimum inhibitory concentration MIC
Procedure: as §1, §2, §3

C. krusei Berlin 1 = test: In vitro microdilution test in RPMI 1640 medium; type: cell-based; conditions: Pichia kudriavzevii, BERLIN1, yeast C. krusei Berlin 1, 48 h at 35° C., read-out: Minimum inhibitory concentration MIC
Procedure: as §1, §2, §3

C. neoformans ATCC 90112 = test: In vitro microdilution test in RPMI 1640 medium; type: cell-based; conditions: Cryptococcus neoformans, ATCC90112, yeast C. neoformans ATCC 90112, 48 h at 35° C., read-out: Minimum inhibitory concentration MIC
Procedure: as §1, §2, §3

[2] = test system: C. parapsilosis ATCC 90018; test: In vitro microdilution test in RPMI 1640 medium; type: cell-based; conditions: Lodderomyces parapsilosis, ATCC90018, yeast C. parapsilosis ATCC 90018, 48 h at 35° C., read-out: Minimum inhibitory concentration MIC
Procedure: as §1, §2, §3

[3] = test system: C. pseudotropicalis 202/218; test: In vitro microdilution test in RPMI 1640 medium; type: cell-based; conditions: Kluyveromyces marxianus, yeast C. pseudotropicalis 202/218, 48 h at 35° C., read-out: Minimum inhibitory concentration MIC
Procedure: as §1, §2, §3

C. tropicalis 201/201 = test: In vitro microdilution test in RPMI 1640 medium; type: cell-based; conditions: Candida tropicalis, yeast C. tropicalis 201/201, 48 h at 35° C., read-out: Minimum inhibitory concentration MIC
Procedure: as §1, §2, §3

C. tropicalis 201/202 = test: In vitro microdilution test in RPMI 1640 medium; type: cell-based; conditions: Candida tropicalis, yeast C. tropicalis 201/202, 48 h at 35° C., read-out: Minimum inhibitory concentration MIC
Procedure: as §1, §2, §3

E. floccosum 190/143 = test: In vitro microdilution test in RPMI 1640 medium; type: cell-based; conditions: Epidermophyton floccosum, 144 h, dermatophyte E. floccosum 190/143, 6 days at 30° C., read-out: Minimum inhibitory concentration MIC
Procedure: as §1, §2, §3

T. mentagrophytes 100/25 = test: In vitro microdilution test in RPMI 1640 medium; type: cell-based; conditions: Trichophyton mentagrophytes, 144 h, dermatophyte T. mentagrophytes 100/25, 6 days at 30° C., read-out: Minimum inhibitory concentration MIC
Procedure: as §1, §2, §3

T. rubrum 101/58 = test: In vitro microdilution test in RPMI 1640 medium; type: cell-based; conditions: Trichophyton rubrum, 144 h, dermatophyte T. rubrum 101/58, 6 days at 30° C., read-out: Minimum inhibitory concentration MIC
Procedure: as §1, §2, §3

Chemical stability = type: physicochemical; conditions: for Stability (unstable in / on exposure to): acidic and strongly alkaline solution, light, heat and oxygen; for Stability (stable in): neutral and weakly alkaline medium
[4] = Binding to ergosterol compared with cholesterol

| Compound | zone of inhibition at 25 µg/mL (test microbes) | zone of inhibition at 50 µg/mL (test microbes) | zone of inhibition at 100 µg/mL (test microbes) | zone of inhibition at 200 µg/mL (test microbes) | Solubility [1] | MIC (A. flavus ATCC 9643) | MIC (A. fumigatus ATCC 9197) | MIC (A. niger ATCC 16404) | MIC (C. albicans ATCC 90028) | MIC (C. albicans ATCC 90029) | MIC (C. glabrata ATCC 90030) | MIC (C. glabrata Berlin 12) | MIC (C. krusei 203/230) | MIC (C. krusei Berlin 1) | MIC (C. neoformans ATCC 90112) | MIC [2] | MIC [3] | MIC (C. tropicalis 201/201) | Stability (unstable in / on exposure to) (Chemical stability) | Stability (stable in) (Chemical stability) | further results |
| --- | --- | --- | --- | --- | --- | --- | --- | --- | --- | --- | --- | --- | --- | --- | --- | --- | --- | --- | --- | --- | --- |
| C[C@@H]1[C@H](O)[C@@H](C)/C=C/C=C/C=C/C=C/C=C/C=C/C=C/[C@H](O[C@@H]2O[C@H](C)[C@@H](O)[C@H](N)[C@@H]2O)C[C@@H]2O[C@](O)(C[C@@H](O)C[C@@H](O)[C@H](O)CC[C@@H](O)C[C@@H](O)CC(=O)O[C@H]1C)C[C@H](O)[C@H]2C(=O)O [Amphotericin B, amphotericin B, reference compound] | 8 mm | 10 mm | 12 mm | 14 mm | only very low solubility in the said solvents and others | – | – | – | – | – | – | – | – | – | – | – | – | – | – | – | Zone of inhibition (diameter) (test microbes; concentration 0.0063 mg/mL): .o slashed.; Zone of inhibition (diameter) (test microbes; concentration 0.0125 mg/mL): .o slashed. |
| C/C=C/C=C/C(=O)CC(O)CCC(C)C1OC(=O)CC(O)CC(O)CCCC(O)CC(O)CC(O)CC2(O)CC(O)C(C(=O)O)C(CC(OC3OC(C)C(O)C(N)C3O)/C=C/C=C/C=C/C=C\C=C/C=C/C=C/C1C)O2 (stereo not drawn) [3874 H3] | 14 mm | 18 mm | 20 mm | 22 mm | soluble in methanol and other lower alcohols, acetonitrile and chloroform | 16 µg/mL (≈ 14.9 µM) | 4 µg/mL (≈ 3.72 µM) | 8 µg/mL (≈ 7.45 µM) | 4 µg/mL (≈ 3.72 µM) | 4 µg/mL (≈ 3.72 µM) | 4 µg/mL (≈ 3.72 µM) | 4 µg/mL (≈ 3.72 µM) | 4 µg/mL (≈ 3.72 µM) | 2 µg/mL (≈ 1.86 µM) | 2 µg/mL (≈ 1.86 µM) | 4 µg/mL (≈ 3.72 µM) | 4 µg/mL (≈ 3.72 µM) | 4 µg/mL (≈ 3.72 µM) | unstable in acidic and strongly alkaline solution and on exposure to light, heat and oxygen | Stable in neutral and weakly alkaline medium | MIC (C. tropicalis 201/202): 4 µg/mL (≈ 3.72 µM); MIC (E. floccosum 190/143): 16 µg/mL (≈ 14.9 µM); MIC (T. mentagrophytes 100/25): 8 µg/mL (≈ 7.45 µM); MIC (T. rubrum 101/58): 16 µg/mL (≈ 14.9 µM); zone of inhibition at 6.3 µg/mL (test microbes): 12 mm; zone of inhibition at 12.5 µg/mL (test microbes): 13 mm; Binding to ergosterol versus cholesterol [4]: bind more strongly to ergosterol than to cholesterol |
| CNc1ccc(C(=O)CC(O)CCC(C)C2OC(=O)CC(O)CC(O)CCCC(O)CC(O)CC(O)CC3(O)CC(O)C(C(=O)O)C(CC(OC4OC(C)C(O)C(N)C4O)/C=C/C=C/C=C/C=C\C=C/C=C/C=C/C2C)O3)cc1 (stereo not drawn) [3874 H2] | – | – | – | – | soluble in methanol, acetonitrile and chloroform | – | – | – | – | – | – | – | – | – | – | – | – | – | unstable in acidic and strongly alkaline solution and on exposure to light, heat and oxygen | Stable in neutral and weakly alkaline medium | – |
| CC1/C=C/C=C/C=C\C=C/C=C/C=C/C=C/C(OC2OC(C)C(O)C(N)C2O)CC2OC(O)(CC(O)CC(O)CC(O)CCCC(O)CC(O)CC(=O)OC1C(C)CCC(O)CC(=O)c1ccc(N)cc1)CC(O)C2C(=O)O (stereo not drawn) [3874 H1] | 21 mm | 24 mm | 25 mm | 26 mm | soluble in methanol, acetonitrile and chloroform | 8 µg/mL (≈ 7.28 µM) | 4 µg/mL (≈ 3.64 µM) | 2 µg/mL (≈ 1.82 µM) | 2 µg/mL (≈ 1.82 µM) | 2 µg/mL (≈ 1.82 µM) | 4 µg/mL (≈ 3.64 µM) | 2 µg/mL (≈ 1.82 µM) | 4 µg/mL (≈ 3.64 µM) | 2 µg/mL (≈ 1.82 µM) | 2 µg/mL (≈ 1.82 µM) | 4 µg/mL (≈ 3.64 µM) | 2 µg/mL (≈ 1.82 µM) | 2 µg/mL (≈ 1.82 µM) | unstable in acidic and strongly alkaline solution and on exposure to light, heat and oxygen | Stable in neutral and weakly alkaline medium | MIC (C. tropicalis 201/202): 2 µg/mL (≈ 1.82 µM); MIC (E. floccosum 190/143): 16 µg/mL (≈ 14.6 µM); MIC (T. mentagrophytes 100/25): 4 µg/mL (≈ 3.64 µM); MIC (T. rubrum 101/58): 16 µg/mL (≈ 14.6 µM); zone of inhibition at 6.3 µg/mL (test microbes): 17 mm; zone of inhibition at 12.5 µg/mL (test microbes): 19 mm |

From patent US5939399A, “Polyene antibiotics, 3874 H1 to H6, processes for their preparation and use” (Hoechst Aktiengesellschaft, priority 1996, dated 1999)
